According to ChEMBL document CHEMBL1201862, “PubChem BioAssay data set” (2004):
The source made the active and inactive calls.

What was measured:
Protein skinhead-1 = molecular target: T1, Protein skinhead-1 (Caenorhabditis elegans, UniProt P34707); type: functional
T1 sequence (P34707 whole entry): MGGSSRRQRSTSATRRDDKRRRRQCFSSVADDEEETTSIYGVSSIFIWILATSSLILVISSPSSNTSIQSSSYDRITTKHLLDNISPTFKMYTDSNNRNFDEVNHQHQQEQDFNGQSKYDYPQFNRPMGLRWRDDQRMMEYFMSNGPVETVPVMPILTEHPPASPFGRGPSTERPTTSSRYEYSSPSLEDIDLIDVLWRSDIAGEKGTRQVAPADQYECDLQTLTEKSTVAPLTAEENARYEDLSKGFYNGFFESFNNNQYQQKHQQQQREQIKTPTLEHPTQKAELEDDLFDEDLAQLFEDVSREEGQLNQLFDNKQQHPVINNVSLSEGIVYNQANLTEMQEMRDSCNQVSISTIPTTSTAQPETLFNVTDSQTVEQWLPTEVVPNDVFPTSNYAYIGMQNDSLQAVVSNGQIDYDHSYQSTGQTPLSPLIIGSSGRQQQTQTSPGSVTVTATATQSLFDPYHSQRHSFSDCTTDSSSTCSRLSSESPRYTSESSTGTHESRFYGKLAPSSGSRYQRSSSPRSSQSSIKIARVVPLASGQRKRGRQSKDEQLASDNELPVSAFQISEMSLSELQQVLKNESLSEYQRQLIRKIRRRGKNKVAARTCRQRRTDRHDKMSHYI

[1] = molecular target: T2, Corticotropin-releasing factor receptor 2/Corticotropin-releasing factor-binding protein (Homo sapiens, UniProt P24387+Q13324); test: Dose Response confirmation of uHTS hits for small molecule antagonists of the CRF-binding protein and CRF-R2 receptor complex.; type: functional; conditions: read-out: IC50_Mean
T2 sequence (Q13324 whole entry): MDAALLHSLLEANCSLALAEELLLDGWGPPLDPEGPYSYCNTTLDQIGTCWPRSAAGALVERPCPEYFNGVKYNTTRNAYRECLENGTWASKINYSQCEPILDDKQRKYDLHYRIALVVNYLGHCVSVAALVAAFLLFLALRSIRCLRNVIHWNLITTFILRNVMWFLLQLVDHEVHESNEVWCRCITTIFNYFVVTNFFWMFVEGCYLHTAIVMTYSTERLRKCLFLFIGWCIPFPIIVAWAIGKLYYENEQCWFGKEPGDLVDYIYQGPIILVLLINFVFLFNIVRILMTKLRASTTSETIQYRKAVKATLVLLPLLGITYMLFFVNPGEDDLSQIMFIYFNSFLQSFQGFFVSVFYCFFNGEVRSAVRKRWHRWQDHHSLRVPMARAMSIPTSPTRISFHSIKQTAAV
T2 sequence (P24387 whole entry): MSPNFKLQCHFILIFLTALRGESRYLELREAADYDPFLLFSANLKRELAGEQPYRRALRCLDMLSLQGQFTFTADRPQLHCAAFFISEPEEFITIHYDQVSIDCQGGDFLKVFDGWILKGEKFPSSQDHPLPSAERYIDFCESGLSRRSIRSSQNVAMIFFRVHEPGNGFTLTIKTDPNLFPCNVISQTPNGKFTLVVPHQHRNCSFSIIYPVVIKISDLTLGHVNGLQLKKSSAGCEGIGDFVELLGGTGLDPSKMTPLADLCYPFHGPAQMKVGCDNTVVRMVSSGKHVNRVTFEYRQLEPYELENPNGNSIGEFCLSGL

[2] = molecular target: T2, Corticotropin-releasing factor receptor 2/Corticotropin-releasing factor-binding protein; test: activators of CRF receptor 2 with binding protein – uHTS hits, confirmation (AID 602473); type: functional; conditions: read-out: EC50_Mean
[3] = viability of uninfected HEp-2 cells – cell-based, HTS, cytotoxicity control for RSV inhibitor project, dose response (AID 2410); type: functional; conditions: human respiratory syncytial virus
[4] = reduction of Shn3 3'UTR-driven luciferase in osteoblasts – cell-based, Clone20 osteoblasts, firefly luciferase, cherry-picked, dose response (AID 624132); type: functional;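 further: firefly luciferase luminescence from reporter carrying the Shn3 3'UTR in osteoblasts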
[5] = Trypanosoma cruzi growth suppression in host cells – NIH3T3 host cells, beta-gal luminescence, confirmation (AID 2044); type: functional, cell-based;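 further: intracellular parasites grown in NIH/3T3 mouse fibroblasts as host cells; luminescent beta-galactosidase reporter signal from transgenic T. cruzi replicating inside host cells; inhibitors lower the luminescence signal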
[6] = NIH3T3 cell viability loss – ATP luminescence, mouse fibroblasts, counter-screen, dose response (AID 2010); type: functional, cell-based;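 further: cells exposed to compound for about 90 hours before reading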
Cytochrome P450 3A4 = Cytochrome P450 3A4 (Homo sapiens, UniProt P08684);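 further: CYP3A4 tested as one member of a cytochrome P450 panel screen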
Cytochrome P450 1A2 = molecular target: T3, Cytochrome P450 1A2 (Homo sapiens, UniProt P05177);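 further: PubChem cytochrome P450 panel assay, CYP1A2 panel member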
T3 sequence (P05177 whole entry): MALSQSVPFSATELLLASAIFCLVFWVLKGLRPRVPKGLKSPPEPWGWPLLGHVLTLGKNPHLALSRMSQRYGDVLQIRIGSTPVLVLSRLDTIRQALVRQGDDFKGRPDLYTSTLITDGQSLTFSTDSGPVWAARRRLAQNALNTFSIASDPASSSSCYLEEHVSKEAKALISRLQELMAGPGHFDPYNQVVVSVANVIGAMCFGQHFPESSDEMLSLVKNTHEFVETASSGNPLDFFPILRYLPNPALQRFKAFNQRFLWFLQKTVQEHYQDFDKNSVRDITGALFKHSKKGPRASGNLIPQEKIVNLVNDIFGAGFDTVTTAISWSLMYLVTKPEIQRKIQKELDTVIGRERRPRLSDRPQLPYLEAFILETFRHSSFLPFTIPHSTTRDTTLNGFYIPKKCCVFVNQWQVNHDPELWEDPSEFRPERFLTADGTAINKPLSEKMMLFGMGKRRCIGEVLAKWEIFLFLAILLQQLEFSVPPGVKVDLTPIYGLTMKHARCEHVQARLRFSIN

Chain of Cytochrome P450 3A4 (P08684 whole entry): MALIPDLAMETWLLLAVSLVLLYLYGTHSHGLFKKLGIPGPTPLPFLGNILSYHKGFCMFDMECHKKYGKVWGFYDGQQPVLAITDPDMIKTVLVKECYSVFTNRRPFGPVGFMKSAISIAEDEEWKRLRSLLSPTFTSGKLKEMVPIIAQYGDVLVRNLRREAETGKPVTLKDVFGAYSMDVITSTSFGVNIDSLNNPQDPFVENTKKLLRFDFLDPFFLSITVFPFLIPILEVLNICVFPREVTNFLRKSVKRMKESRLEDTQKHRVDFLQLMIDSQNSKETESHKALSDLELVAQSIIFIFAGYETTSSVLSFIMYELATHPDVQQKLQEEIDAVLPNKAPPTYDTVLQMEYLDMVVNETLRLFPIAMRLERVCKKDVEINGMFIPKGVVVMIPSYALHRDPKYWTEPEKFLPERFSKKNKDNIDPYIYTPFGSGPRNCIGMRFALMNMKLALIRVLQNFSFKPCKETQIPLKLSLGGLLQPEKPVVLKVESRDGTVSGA

Row | IC50 (Protein skinhead-1) | IC50 [1] | EC50 [2] | Structure (SMILES) | further results
1 | 29.2 µM (active) |  |  | Clc1ccc2nc(N3CCCCC3)sc2c1 | 
2 |  | > 47.1 µM (inactive) | > 53 µM (inactive) | O=C(c1ccc(NS(=O)(=O)c2cccc([N+](=O)[O-])c2)cc1)N1CCCCCC1 | 
3 |  | > 47.1 µM (inactive) | > 53 µM (inactive) | COC(C(=O)Nc1ccc(F)cc1)c1ccccc1 (stereo not given) | 
4 | 48.3 µM (active) |  |  | O=C(Nc1ccc(OC(F)F)c(Cl)c1)c1cccc(OC(F)F)c1 | 
5 | > 100 µM (inactive) |  |  | O=C(Nc1ccc2c(c1)Cc1ccccc1-2)c1ccco1 | 
6 | > 100 µM (inactive) |  |  | COCCNC(=O)CC(c1ccccc1)c1ccccc1 | 
7 |  | > 47.1 µM (inactive) | > 53 µM (inactive) | CC(=O)Nc1ccc(OCC[n+]2cccc(C(N)=O)c2)cc1 | 
8 |  | > 47.1 µM (inactive) | > 53 µM (inactive) | CCC/C(=N\NC(=O)C1CC1)c1ccccc1 | 
9 |  | > 47.1 µM (inactive) | > 53 µM (inactive) | CCOc1nc(C)ccc1-c1noc(-c2ccccn2)n1 | 
10 |  | > 47.1 µM (inactive) | > 53 µM (inactive) | N#C/C(=C(/O)COC(=O)COc1cccc(Br)c1)c1nc2ccccc2[nH]1 | 
11 | > 100 µM (inactive) |  |  | O=C(Nc1ccc(N2CCCCC2)cc1)c1ccc2ccccc2n1 | 
12 |  |  |  | O=C(Nc1nc(-c2ccc(Cl)cc2)cs1)NC1CCCCC1 | CC50 [3]: 20.3 µM (active)
13 | > 100 µM (inactive) |  |  | OCc1cccc(-c2csc(C(O)(c3ccccc3)C(F)(F)F)n2)c1 (stereo not given) | 
14 |  |  |  | c1cncc(-c2nn3c(Cn4nnc5ccccc54)nnc3s2)c1 | CC50 [3]: > 50 µM (active)
15 | 26.5 µM (active) |  |  | c1ccc(-c2csc(N3CCN(c4ccccn4)CC3)n2)cc1 | 
16 |  | > 47.1 µM (inactive) | > 53 µM (inactive) | Cc1nn2c(N)c(-c3ccccc3)cnc2c1-c1ccc(Cl)cc1 | 
17 |  |  |  | COC(=O)c1sccc1-c1ccc(C(N)=O)o1 | CC50 [3]: 44 µM (active)
18 | > 100 µM (inactive) |  |  | O=C(COC(=O)C12CC3CC(CC(O)(C3)C1)C2)Nc1cccc(Br)c1 | 
19 |  | > 47.1 µM (inactive) | > 53 µM (inactive) | Cc1cc(C)c(S(=O)(=O)n2ccc3ccccc32)c(C)c1 | 
20 | > 100 µM (inactive) |  |  | Cc1ccccc1NC(=O)Cc1nc(COC(=O)c2cccc(O)c2)cs1 | 
21 |  |  |  | COc1ccc(CN(C(=O)CSc2nnc(-c3ccc(F)cc3)o2)c2ccc(F)cc2)cc1 | AC50 [4]: 43.4 µM (active)
22 | > 100 µM (inactive) |  |  | CCOC(=O)c1ccc(Nc2nnc(C(C)(C)C)c(O)n2)cc1 | 
23 | 24.7 µM (active) |  |  | Clc1cccc(CSc2ncn(-c3ccccc3)n2)c1 | 
24 |  | > 47.1 µM (inactive) | > 53 µM (inactive) | CCCN1Cc2cccc(C(=O)NCc3cccs3)c2C1=O | 
25 |  | > 47.1 µM (inactive) | > 53 µM (inactive) | O=C(C(c1ccccc1)c1ccccc1)N1CCN(CCN2C(=O)c3cccc4cccc(c34)C2=O)CC1 | 
26 | 53.8 µM (inactive) |  |  | Clc1ccccc1-c1nnc(-c2ccccc2Cl)o1 | 
27 |  |  |  | COC(=O)c1sc2ccccc2c1-n1cccc1C(=O)C(=O)Nc1ccc(Cl)cc1 | AC50 (Cytochrome P450 3A4): 14.1 µM (inconclusive); AC50 (Cytochrome P450 1A2): 2.82 µM (inconclusive)
28 |  | > 47.1 µM (inactive) | > 53 µM (inactive) | C=CCOc1nc2c(c(=O)n(Cc3ccc(Cl)c(Cl)c3)c(=O)n2C)n1C | 
29 |  |  |  | CCCC[C@@H]1C[C@H]1C(NC(=O)c1ccccc1)c1ccccc1C(F)(F)F (stereo not given in full) | AC50 (Cytochrome P450 3A4): 3.16 µM (inconclusive); AC50 (Cytochrome P450 1A2): 10 µM (inconclusive)
30 |  |  |  | O=C(Nc1ccccc1)N1CC[C@@]2(CCCN(C(=O)Oc3ccccc3)C2)C1 | AC50 (Cytochrome P450 3A4): 25.1 µM (inconclusive); AC50 (Cytochrome P450 1A2): 15.8 µM (inconclusive)

Row | Structure (SMILES) | IC50 (Protein skinhead-1) | IC50 [1] | EC50 [2] | further results
31 | O=C(Nc1ccccc1)c1sccc1Oc1ccc([N+](=O)[O-])cc1F |  | > 47.1 µM (inactive) | > 53 µM (inactive) | EC50 [5]: 1.42 µM (active); EC50 [6]: > 60 µM (not active)
32 | CCC(C)C1N=C(c2ccccc2)c2cc(Cl)ccc2N(CC(=O)NCc2ccco2)C1=O (stereo not given) |  | > 47.1 µM (inactive) | > 53 µM (inactive) | 
